In publication PMC12363342, “Investigating the N-terminal linker histone H1 subtypes as substrates for JmjC lysine demethylases” (RSC Chemical Biology, 2025):
Square brackets hold non-standard residues; d marks the D form. Ends that are not written are not given here. Lys(Me3) = C[N+](C)(C)CCCC[C@H](N)C(=O)O

Biological target: T1, KDM4E (Homo sapiens, UniProt B2RXH2)
T1 construct: KDM4DM1-L359,[39]; KDM4EM1-R336,[30]; His6 (N); made in house; host or cells: Escherichia coli
T1 sequence (B2RXH2 1-336): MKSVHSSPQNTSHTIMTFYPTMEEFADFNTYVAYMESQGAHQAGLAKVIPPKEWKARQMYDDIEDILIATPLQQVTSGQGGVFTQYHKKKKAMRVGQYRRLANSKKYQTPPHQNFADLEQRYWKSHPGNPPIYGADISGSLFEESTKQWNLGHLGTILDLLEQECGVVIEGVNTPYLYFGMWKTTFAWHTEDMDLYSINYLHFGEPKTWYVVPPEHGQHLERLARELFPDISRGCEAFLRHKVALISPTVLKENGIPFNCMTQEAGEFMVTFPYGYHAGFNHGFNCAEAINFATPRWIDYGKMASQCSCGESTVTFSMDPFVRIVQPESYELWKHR
Assay: formaldehyde dehydrogenase (FDH)-coupled demethylation assay, KDM4E
Assay type: biochemical
Details: KDM4E (400 nM); for Km / kcat (KDM4E) / kcat/KM (KDM4E): FDH-coupled fluorescence assay, peptide 1–50 μM, HEPES pH 7.5; for Km / kcat (KDM4E): FAS 20 μM, LAA 200 μM, 2OG 200 μM, NAD+ 500 μM, FDH 2.0 μM, mean ± SEM (n = 3); for kcat/KM (KDM4E): catalytic efficiency; for substrate inhibition in Michaelis-Menten kinetics (KDM4E): FDH-coupled assay, Fig. S25
Experimental: Kinetic parameters were determined by recording the initial reaction rates of NADH production at varying histone peptide concentrations (Fig. S24 and S25).
Kinetic parameters for demethylation of N^ε-trimethylated H1 peptides by KDM4D and KDM4E (400 nM) measured using a formaldehyde dehydrogenase-coupled demethylation assay. H1 peptide (1–50 μM), FAS (20 μM), LAA (200 μM), 2OG (200 μM), NAD^+ (500 μM), KDM4 enzyme (0.8 μM) and FDH (2.0 μM) in HEPES buffer at pH 7.5.
Substrate Km values for KDM4 enzymes were determined using a reported formaldehyde dehydrogenase/NAD coupled enzyme assay that quantifies formaldehyde production.[30] In brief, DNA encoding for wild-type full-length formaldehyde dehydrogenase was synthesised (by GenScript) and cloned into the pET-28B vector. The resultant plasmid was then transformed into the Rosetta strain of Escherichia coli. Coupled enzyme-assays were carried out in black polystyrene 384-well non-binding surface microplates (Corning) and kinetic measurements were obtained using a PHERAstar FS plate reader (BMG Labtech) equipped with a 350 nm excitation and 460 nm emission optic module.[30] All steps were performed in the assay buffer (50 mM HEPES pH 7.5, 0.01% (v/v) Tween-20). Substrate mixtures were prepared freshly and contained FAS (20 μM), LAA (200 μM), 2OG (200 μM), NAD^+ (500 μM), and H1 peptide (1–50 μM); they were dispensed (25 μL final volume) in triplicate. Assays were initiated by plate reader injection of 25 μL of a mixture of KDM4 (0.8 μM) and formaldehyde dehydrogenase (FDH) (2.0 μM) in assay buffer (50 mM HEPES pH 7.5, 0.01% (v/v) Tween-20). Production of NADH was measured at 60 second intervals over 25 cycles. Kinetic parameters were determined from the reaction rate during the initial linear phase of formaldehyde production, and specific activities were calculated from a formaldehyde standard curve and fitted to the Michaelis–Menten equation using GraphPad Prism Version 5.0 (GraphPad software, La Jolla, CA, USA). Each assay was carried out in triplicate with independently prepared reaction mixtures.

Substance: KKKAAK[Lys(Me3)]AGGTPRKA [Peptide H1.2K26me3, 15-mer linker histone H1.2 residues 20-34 peptide, tri-methylated K26]
- Km: 5.22 ± 0.54 µM
- kcat (KDM4E): 0.0313 ± 0.0015 s⁻¹
- kcat/KM (KDM4E): 6000 M⁻¹ s⁻¹

Substance: KKKAA[Lys(Me3)]KAGGTPRKA [Peptide H1.2K25me3, 15-mer linker histone H1.2 residues 20-34 peptide, tri-methylated K25]
- substrate inhibition in Michaelis-Menten kinetics (KDM4E): evidence for substrate inhibition
- Km: 18.5 ± 6.87 µM
- kcat (KDM4E): 0.0767 ± 0.0218 s⁻¹
- kcat/KM (KDM4E): 4120 M⁻¹ s⁻¹

Substance: KKKAR[Lys(Me3)]SAGAAKRKA [Peptide H1.4K25me3, 15-mer linker histone H1.4 residues 20-34 peptide, tri-methylated K25]
- substrate inhibition in Michaelis-Menten kinetics (KDM4E): evidence for substrate inhibition
- Km: 11.5 ± 3.19 µM
- kcat (KDM4E): 0.0435 ± 0.00783 s⁻¹
- kcat/KM (KDM4E): 3770 M⁻¹ s⁻¹

Substance: KKKATK[Lys(Me3)]AAGAGAAK [Peptide H1.5K26me3, 15-mer linker histone H1.5 residues 20-34 peptide, tri-methylated K26]
- Km: 4.04 ± 0.51 µM
- kcat (KDM4E): 0.0218 ± 0.0013 s⁻¹
- kcat/KM (KDM4E): 5400 M⁻¹ s⁻¹

Substance: KKKA[Lys(Me3)]KAGATAGKRK [Peptide H1.3K24me3, 15-mer linker histone H1.3 residues 20-34 peptide, tri-methylated K24]
- Km: 6.45 ± 1.51 µM
- kcat (KDM4E): 0.0333 ± 0.00417 s⁻¹
- kcat/KM (KDM4E): 5170 M⁻¹ s⁻¹
